From ChEMBL document CHEMBL5696442, “Discovery of type II inhibitors of TGFβ-activated kinase 1 (TAK1) and mitogen-activated protein kinase kinase kinase kinase 2 (MAP4K2)” (J Med Chem, 2015) come the findings set out here.

The test system of assay [1] is Tyrosine-protein kinase ABL1 (Homo sapiens), P00519 [F317L]. Description: Inhibition of nonphosphorylated ABL1 F317L mutant (unknown origin) at 1 uM by Ambit Kinomescan binding assay relative to control.
Assay [2] deals with SNF-related serine/threonine-protein kinase (Homo sapiens) (UniProt Q9NRH2). Description: Inhibition of SNRK (unknown origin) at 1 uM by Ambit Kinomescan binding assay relative to control.
In assay [3] the target is T1, Serine/threonine-protein kinase TAO1 (Homo sapiens) (UniProt Q7L7X3).
T1 sequence (whole entry): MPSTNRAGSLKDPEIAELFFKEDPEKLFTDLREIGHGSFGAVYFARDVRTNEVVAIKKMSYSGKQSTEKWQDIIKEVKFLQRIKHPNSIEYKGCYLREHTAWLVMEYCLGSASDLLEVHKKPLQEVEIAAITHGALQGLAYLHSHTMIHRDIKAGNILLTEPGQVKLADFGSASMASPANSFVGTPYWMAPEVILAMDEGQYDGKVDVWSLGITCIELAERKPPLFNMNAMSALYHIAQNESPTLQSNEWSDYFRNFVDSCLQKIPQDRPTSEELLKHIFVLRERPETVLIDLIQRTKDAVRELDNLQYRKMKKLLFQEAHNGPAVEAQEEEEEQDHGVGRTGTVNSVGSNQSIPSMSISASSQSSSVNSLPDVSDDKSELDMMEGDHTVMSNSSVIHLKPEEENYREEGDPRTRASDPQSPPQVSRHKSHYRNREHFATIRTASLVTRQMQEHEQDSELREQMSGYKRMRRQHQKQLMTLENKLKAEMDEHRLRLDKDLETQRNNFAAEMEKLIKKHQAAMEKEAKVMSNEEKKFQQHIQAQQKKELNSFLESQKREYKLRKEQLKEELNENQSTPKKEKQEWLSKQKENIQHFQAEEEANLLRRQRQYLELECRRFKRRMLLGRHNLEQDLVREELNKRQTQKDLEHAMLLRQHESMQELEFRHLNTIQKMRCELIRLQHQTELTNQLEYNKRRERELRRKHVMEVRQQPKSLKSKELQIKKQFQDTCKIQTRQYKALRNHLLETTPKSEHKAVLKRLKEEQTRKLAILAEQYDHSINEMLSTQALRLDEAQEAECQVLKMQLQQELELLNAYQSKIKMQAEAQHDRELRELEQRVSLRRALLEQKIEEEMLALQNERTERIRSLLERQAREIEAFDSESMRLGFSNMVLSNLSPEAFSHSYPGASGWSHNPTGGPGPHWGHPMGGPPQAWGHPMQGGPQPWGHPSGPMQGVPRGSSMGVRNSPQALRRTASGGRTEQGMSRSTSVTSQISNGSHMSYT
In words: Inhibition of TAO1 Lys2 labeling site in human A-375 cells at 5 uM by KiNativ Profiling analysis relative to control. Type of assay: cell-based.

In assay [4] the target is Mitogen-activated protein kinase kinase kinase kinase 5 (Homo sapiens) (UniProt Q9Y4K4). Description: Inhibition of MAP4K5 (unknown origin) at 1 uM by Ambit Kinomescan binding assay relative to control; values are per cent of control.
Assay [5] addresses Tyrosine-protein kinase Blk (Homo sapiens) (UniProt P51451). Description: Inhibition of BLK (unknown origin) at 10 uM by Ambit Kinomescan binding assay relative to control.
The target in assay [6] is T2, Ephrin type-B receptor 4 (Homo sapiens) (UniProt P54760).
T2 sequence (whole entry): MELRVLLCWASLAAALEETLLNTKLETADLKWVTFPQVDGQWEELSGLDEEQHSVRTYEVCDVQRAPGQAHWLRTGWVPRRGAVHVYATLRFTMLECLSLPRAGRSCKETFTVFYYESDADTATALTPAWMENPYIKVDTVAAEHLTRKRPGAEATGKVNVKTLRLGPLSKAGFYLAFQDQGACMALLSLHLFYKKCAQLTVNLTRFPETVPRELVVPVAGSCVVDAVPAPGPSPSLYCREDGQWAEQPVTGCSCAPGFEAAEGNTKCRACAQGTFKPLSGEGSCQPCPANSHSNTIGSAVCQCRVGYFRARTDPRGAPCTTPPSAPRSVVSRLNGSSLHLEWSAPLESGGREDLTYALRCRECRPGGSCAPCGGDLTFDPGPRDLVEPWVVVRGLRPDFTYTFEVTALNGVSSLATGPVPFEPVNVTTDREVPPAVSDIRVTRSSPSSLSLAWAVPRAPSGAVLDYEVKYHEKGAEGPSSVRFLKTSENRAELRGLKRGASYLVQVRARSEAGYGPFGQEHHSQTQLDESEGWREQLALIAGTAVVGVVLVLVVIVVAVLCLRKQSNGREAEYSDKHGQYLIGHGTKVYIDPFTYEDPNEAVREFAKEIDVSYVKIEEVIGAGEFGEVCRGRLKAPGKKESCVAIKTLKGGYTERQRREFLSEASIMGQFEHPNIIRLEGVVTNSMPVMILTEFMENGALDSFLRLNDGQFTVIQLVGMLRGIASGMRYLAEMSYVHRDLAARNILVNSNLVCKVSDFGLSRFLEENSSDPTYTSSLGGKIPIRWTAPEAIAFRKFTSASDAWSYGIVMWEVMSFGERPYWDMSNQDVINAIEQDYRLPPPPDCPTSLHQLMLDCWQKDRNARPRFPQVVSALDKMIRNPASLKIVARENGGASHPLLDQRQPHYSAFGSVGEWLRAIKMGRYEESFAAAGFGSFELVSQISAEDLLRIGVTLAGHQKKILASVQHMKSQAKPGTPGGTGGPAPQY
Description: Inhibition of EPHB4 (unknown origin) at 10 uM by Ambit Kinomescan binding assay.

Assay [7] deals with Calcium/calmodulin-dependent protein kinase type II subunit gamma (Homo sapiens) (UniProt Q13555). Description: Inhibition of CAMK2g K1 labeling site harbouring KTSTQEYAAKIINTK in human Huh-7 cells at 10 uM by KiNativ Profiling analysis relative to control. Type of assay: cell-based.
The target in assay [8] is Cyclin-dependent kinase 5 (Homo sapiens) (UniProt Q00535). In words: Inhibition of CDK5 Lys2 labeling site harbouring NVLHRDLKPQNLLINR in human Huh-7 cells at 1 uM by KiNativ Profiling analysis relative to control. Type of assay: cell-based.
A short description of assay [9]: Inhibition of p70S6K ATP Loop labeling site in human Huh-7 cells at 1 uM by KiNativ Profiling analysis relative to control. The following applies: condition cancer.

The structures appear in SMILES notation. Activity calls are given as the source filed them. The calls are words filed in the database; no cut-off is given here.

Sequence of SNF-related serine/threonine-protein kinase (Homo sapiens) (Q9NRH2 whole entry): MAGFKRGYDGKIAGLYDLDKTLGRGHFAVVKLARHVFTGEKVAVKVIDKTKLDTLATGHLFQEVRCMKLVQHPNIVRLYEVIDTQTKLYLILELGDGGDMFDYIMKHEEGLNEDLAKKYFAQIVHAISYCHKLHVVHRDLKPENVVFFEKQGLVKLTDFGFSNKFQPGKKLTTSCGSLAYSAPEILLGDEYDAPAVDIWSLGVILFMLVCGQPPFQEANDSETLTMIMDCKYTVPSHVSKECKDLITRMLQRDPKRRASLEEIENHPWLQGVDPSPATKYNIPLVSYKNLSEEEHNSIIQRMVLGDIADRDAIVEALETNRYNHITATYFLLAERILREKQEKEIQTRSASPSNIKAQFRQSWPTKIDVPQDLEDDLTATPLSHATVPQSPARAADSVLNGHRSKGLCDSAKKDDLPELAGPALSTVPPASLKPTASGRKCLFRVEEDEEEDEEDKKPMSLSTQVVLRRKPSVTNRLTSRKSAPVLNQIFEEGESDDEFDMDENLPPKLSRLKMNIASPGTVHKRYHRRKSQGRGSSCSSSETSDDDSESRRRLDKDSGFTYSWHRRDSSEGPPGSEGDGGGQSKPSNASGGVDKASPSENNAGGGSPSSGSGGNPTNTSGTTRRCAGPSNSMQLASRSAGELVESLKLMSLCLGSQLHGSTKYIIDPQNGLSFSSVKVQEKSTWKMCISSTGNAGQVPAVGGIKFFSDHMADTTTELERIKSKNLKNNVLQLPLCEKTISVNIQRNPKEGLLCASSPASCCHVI
Sequence of Tyrosine-protein kinase Blk (Homo sapiens) (P51451 2-505 limits assumed): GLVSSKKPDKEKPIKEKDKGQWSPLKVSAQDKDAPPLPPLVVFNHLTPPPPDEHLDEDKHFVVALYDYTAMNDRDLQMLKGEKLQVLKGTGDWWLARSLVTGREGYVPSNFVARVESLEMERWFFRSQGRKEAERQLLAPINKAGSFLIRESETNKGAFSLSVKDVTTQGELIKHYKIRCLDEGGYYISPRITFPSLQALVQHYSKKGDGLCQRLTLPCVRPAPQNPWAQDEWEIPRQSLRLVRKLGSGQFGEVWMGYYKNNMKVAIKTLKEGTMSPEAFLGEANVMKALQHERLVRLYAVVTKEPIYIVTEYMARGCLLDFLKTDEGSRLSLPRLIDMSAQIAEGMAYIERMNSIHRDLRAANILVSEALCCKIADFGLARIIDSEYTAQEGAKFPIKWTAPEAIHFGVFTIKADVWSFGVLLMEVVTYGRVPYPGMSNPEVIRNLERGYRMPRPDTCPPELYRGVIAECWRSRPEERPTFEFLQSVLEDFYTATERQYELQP
Sequence of Cyclin-dependent kinase 5 (Homo sapiens) (Q00535 whole entry, looked up): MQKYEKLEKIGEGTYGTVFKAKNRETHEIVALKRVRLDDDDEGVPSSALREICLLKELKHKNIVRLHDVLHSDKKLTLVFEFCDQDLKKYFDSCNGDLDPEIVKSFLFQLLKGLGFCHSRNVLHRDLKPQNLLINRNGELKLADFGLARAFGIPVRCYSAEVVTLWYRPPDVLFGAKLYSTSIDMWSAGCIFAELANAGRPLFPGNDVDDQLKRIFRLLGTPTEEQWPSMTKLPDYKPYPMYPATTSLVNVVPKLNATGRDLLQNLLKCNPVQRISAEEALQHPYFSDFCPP
Sequence of Mitogen-activated protein kinase kinase kinase kinase 5 (Homo sapiens) (Q9Y4K4 whole entry, looked up): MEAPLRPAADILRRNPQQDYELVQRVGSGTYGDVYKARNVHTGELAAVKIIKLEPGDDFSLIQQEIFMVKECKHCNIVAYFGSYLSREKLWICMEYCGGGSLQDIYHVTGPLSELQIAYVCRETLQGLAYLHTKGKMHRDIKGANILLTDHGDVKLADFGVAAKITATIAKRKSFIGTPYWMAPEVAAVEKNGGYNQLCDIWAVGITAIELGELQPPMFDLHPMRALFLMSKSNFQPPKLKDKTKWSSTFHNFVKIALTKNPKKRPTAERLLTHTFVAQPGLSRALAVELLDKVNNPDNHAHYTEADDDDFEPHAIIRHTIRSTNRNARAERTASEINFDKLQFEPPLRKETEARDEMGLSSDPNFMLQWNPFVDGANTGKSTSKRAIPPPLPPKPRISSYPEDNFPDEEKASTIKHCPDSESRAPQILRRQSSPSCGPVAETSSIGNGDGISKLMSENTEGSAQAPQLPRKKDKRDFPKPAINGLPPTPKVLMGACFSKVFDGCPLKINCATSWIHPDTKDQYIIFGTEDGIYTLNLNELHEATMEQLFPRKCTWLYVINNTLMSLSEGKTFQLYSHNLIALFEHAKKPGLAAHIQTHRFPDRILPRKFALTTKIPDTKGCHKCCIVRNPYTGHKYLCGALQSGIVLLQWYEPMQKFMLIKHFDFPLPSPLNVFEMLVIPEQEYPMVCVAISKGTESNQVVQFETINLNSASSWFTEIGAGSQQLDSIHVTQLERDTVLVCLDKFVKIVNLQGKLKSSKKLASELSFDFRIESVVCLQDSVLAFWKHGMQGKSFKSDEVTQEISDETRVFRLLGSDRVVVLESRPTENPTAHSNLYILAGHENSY
Sequence of Tyrosine-protein kinase ABL1 (Homo sapiens), P00519 [F317L] (P00519 whole entry F317L): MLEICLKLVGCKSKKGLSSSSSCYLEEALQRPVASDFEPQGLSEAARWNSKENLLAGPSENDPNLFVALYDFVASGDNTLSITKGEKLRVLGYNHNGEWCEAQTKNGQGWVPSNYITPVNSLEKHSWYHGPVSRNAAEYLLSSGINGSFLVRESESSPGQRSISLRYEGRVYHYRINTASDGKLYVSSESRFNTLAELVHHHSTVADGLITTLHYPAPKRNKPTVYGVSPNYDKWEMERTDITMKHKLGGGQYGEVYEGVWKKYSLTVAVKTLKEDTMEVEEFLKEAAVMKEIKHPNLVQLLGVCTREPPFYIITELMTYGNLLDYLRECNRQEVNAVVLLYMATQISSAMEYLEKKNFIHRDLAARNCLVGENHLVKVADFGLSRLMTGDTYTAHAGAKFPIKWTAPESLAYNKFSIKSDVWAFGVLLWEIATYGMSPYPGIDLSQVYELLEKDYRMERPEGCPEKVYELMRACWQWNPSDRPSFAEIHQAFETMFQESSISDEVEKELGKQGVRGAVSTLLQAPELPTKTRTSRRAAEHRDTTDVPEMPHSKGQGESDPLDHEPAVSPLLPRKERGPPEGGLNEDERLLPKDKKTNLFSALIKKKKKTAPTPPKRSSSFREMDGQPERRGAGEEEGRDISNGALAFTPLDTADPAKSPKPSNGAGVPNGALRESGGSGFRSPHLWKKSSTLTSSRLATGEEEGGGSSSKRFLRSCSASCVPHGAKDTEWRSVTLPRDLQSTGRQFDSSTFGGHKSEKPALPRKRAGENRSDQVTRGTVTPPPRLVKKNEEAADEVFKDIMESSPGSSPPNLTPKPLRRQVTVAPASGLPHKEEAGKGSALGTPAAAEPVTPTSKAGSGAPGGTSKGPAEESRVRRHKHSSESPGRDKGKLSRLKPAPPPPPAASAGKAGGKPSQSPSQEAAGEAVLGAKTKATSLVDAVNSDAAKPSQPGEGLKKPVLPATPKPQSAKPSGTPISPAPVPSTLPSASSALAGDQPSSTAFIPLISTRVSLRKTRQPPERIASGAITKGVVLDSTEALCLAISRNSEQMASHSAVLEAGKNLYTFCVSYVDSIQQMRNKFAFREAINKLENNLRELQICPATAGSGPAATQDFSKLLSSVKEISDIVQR
Sequence of Calcium/calmodulin-dependent protein kinase type II subunit gamma (Homo sapiens) (Q13555 whole entry): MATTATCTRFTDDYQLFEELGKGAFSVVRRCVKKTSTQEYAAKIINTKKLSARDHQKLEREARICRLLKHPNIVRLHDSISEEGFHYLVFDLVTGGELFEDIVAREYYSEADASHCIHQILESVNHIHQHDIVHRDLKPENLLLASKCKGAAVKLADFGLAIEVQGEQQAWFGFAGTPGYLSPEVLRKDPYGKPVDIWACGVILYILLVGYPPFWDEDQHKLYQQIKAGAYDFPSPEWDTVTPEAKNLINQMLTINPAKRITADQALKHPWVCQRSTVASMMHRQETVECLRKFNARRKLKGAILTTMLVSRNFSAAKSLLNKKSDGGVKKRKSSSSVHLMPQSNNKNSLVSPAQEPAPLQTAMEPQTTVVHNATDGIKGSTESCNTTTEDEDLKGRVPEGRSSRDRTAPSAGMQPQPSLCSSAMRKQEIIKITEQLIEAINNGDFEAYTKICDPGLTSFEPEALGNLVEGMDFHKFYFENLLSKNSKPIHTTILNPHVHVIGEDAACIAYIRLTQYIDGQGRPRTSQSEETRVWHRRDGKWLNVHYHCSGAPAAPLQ

For orientation: inhibition means the relative decrease from the control value, in per cent. Regarding `CCN1CCN(Cc2ccc(NC(=O)c3ccc(C)c(/C=C/c4cnc5[nH]ccc5c4OC)c3)cc2C(F)(F)F)CC1`, the figures for the inhibition in assay [1], in [2] and in [3] were 0%, 100% and 66.2%, respectively. The residual activity in assay [4] was found to be 7.2%.
On to `CCN1CCN(Cc2ccc(NC(=O)c3ccc(C)c(Oc4ccnc5[nH]ccc45)c3)cc2C(F)(F)F)CC1`, for which the figures for the inhibition in assay [5] and in [7] were 0.45% and 6.1%, respectively. Besides, the inhibition entry in assay [6] was “inactive”.
Take `CNc1cc(Oc2cc(C(=O)Nc3cc(N4CCN(C)CC4)cc(C(F)(F)F)c3)ccc2C)ncn1`: in assay [8], the inhibition amounted to 1.1%. In [9], the inhibition at 1 µM is -44.2%.
